Experimental data published in PubChem BioAssay (NCI).
“And” between values parts separate entries of the source, which are not always exact repeats. Equal entries are not always repeated.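 These data come from cells grown in 96-well plates and exposed to compound for 48 hours at five concentrations. GI50 = concentration required for 50% inhibition of growth. The concentration for full growth arrest is given as TGI.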

Assays:
Test in all cases: NCI anticancer screen, dose series, 48 h
SN12C renal = tested on: SN12C renal
HS 578T breast = tested on: HS 578T breast
A498 renal = tested on: A498 renal
CAKI-1 renal = tested on: CAKI-1 renal
786-0 renal = tested on: 786-0 renal
OVCAR-8 ovarian = tested on: OVCAR-8 ovarian
HOP-62 NSCLC = tested on: HOP-62 NSCLC
KM20L2 colon = tested on: KM20L2 colon
LXFL 529 NSCLC = tested on: LXFL 529 NSCLC
DMS 114 small cell lung = tested on: DMS 114 small cell lung

| Structure (SMILES) | TGI (SN12C renal) [µM] | TGI (HS 578T breast) [µM] | TGI (A498 renal) [µM] | TGI (CAKI-1 renal) [µM] | TGI (786-0 renal) [µM] | TGI (OVCAR-8 ovarian) [µM] | TGI (HOP-62 NSCLC) [µM] | GI50 (SN12C renal) [µM] | GI50 (HS 578T breast) [µM] | GI50 (A498 renal) [µM] | GI50 (CAKI-1 renal) [µM] | GI50 (786-0 renal) [µM] | GI50 (OVCAR-8 ovarian) | GI50 (HOP-62 NSCLC) [µM] | TGI (KM20L2 colon) [µM] | TGI (LXFL 529 NSCLC) [µM] | TGI (DMS 114 small cell lung) [µM] | GI50 (KM20L2 colon) [µM] | GI50 (LXFL 529 NSCLC) [µM] |
| --- | --- | --- | --- | --- | --- | --- | --- | --- | --- | --- | --- | --- | --- | --- | --- | --- | --- | --- | --- |
| CC1=NOC(=O)/C1=C/c1ccc2c(c1)OCO2 | 59.4 | > 100 | 62.3 | 36.4 | 46.6 | 86.3 | 40.9 | – | – | – | – | – | – | – | – | – | – | – | – |
| CC1SC(c2ccc(Cl)cc2Cl)N(NC(=O)C(O)c2ccccc2)C1=O (stereo unspecified) | > 100 | > 100 | > 100 | > 100 | > 100 | > 100 | > 100 | 85.4 | > 100 | > 100 | 60.1 | > 100 | 63.4 µM | > 100 | – | – | – | – | – |
| COc1ccc(OC(C)C(=O)O)c2c(=O)ccccc12 (stereo unspecified) | > 100 | – | > 100 | – | > 100 | > 100 | > 100 | – | – | – | – | – | – | – | > 100 | > 100 | > 100 | – | – |
| CC(SCc1ccccc1)C(=O)O (stereo unspecified) | > 100 | > 100 | > 100 | > 100 | > 100 | > 100 | > 100 | – | – | – | – | – | – | – | – | – | – | – | – |
| COc1ccc2[nH]c(C(=O)OCc3ccc4c(Cl)cc(Cl)c(O)c4n3)cc2c1 | 2.51 | 3.81 | 3.73 | 2.13 | 2.6 | 2.6 | 2.8 | 1.24 | 1.28 | 1.91 | 0.768 | 1.3 | 1.15 µM | 1.33 | – | – | – | – | – |
| CC1(C)CCC[C@]2(C)c3ccccc3C(=O)CC12 (stereo partly specified) | > 100 | 95.3 | 71.4 | > 100 | > 100 | > 100 | > 100 | 44.9 | 23.2 | 26 | 83.1 | 64.9 | 32.1 µM | > 100 | – | – | – | – | – |
| O=c1/c(=N\Nc2ccccc2)c2cccc3ccc4cccc1c4c32 | > 100 | > 100 | > 100 | > 100 | > 100 | > 100 | > 100 | – | – | – | – | – | – | – | – | – | – | – | – |
| C1=CCCC=CCC1.C[PH+](C)C.C[PH+](C)C.C[PH+](C)C.[Cl-].[Ir] | > 100 | – | – | – | > 100 | > 100 | > 100 | 82.6 | – | – | – | > 100 | 35.2 µM | > 100 | > 100 | 62.2 | – | > 100 | 17.3 |
| COC(=O)[C@H](Cc1cn(C)cn1)NC(=O)[C@H](Cc1ccccc1)NC(=O)Nc1cc(C(F)(F)F)cc(C(F)(F)F)c1 | 24.6 | 45.1 | 30.1 | 31.7 | 31.9 | 22.7 | 31.9 | 11.7 | 15.1 | 15.8 | 17.1 | 16.8 | 8.26 µM and 9.71 µM | 17.5 | – | – | – | – | – |
| CC(C)c1ccc(NC(=O)Cc2ccc(Nc3ncnc4cc(-c5cnn(CCN(C)C)c5)ccc34)cc2)cc1 | 3.05 | 4.66 | > 10 | 2.88 | 3.96 | 3.54 | > 10 | 1.34 | 0.795 | 0.128 | 1.18 | 1.63 | 1.29 µM | > 10 | – | – | – | – | – |
| c1ccc(OC2=NC3=S(S2)SC(Oc2ccccc2)=N3)cc1 | 40.8 | – | 75 | 34.3 | 30.6 | 57.6 | 67.1 | – | – | – | – | – | – | – | 45 | – | 41 | – | – |
| COc1cc2nccc(Oc3ccc(NC(=O)c4cn(C(C)C)c(=O)n(-c5ccc(F)cc5)c4=O)cc3F)c2cc1OC | > 100 | 89.2 | 6.27 | 6 | > 100 | > 100 | > 100 | 2.81 | 2.64 | 1.64 | 1.91 | > 100 | > 48.4 µM | > 69.4 | – | – | – | – | – |
| COc1cc(NCCCCCN=C(N)NC(N)=NC(C)C)c2ncccc2c1 | 14.8 | 12.7 | 28.1 | > 100 | 26.6 | 17.2 | 19.1 | 2.32 | 2.45 | 13.8 | > 73.1 | 12.2 | 3.08 µM | 5.14 | – | – | – | – | – |
| CCC(CO)Nc1nc2c(c(=O)n(C)c(=O)n2C)n1CCO (stereo unspecified) | > 100 | – | – | – | > 100 | > 100 | – | – | – | – | – | – | – | – | > 100 | > 100 | – | – | – |
| COc1cc2c3c(n(CCCNCCCN)c(=O)c2cc1OC)-c1cc2c(cc1C3=O)OCO2 | 13.3 | 42.8 | 35.6 | 37.3 | 14.2 | 13 | 13 | 2.34 | 6.28 | 18 | 8.22 | 2.83 | 1.27 µM | 1.6 | – | – | – | – | – |
| COC(=O)N/N=C(\C)CC(=O)Nc1ccc(Cl)cc1 | – | – | > 100 | – | > 100 | > 100 | > 100 | – | – | – | – | – | – | – | > 100 | > 100 | > 100 | – | – |
| COC(=O)CC[C@]12C[C@]13CC[C@]1(C)C4C(C)C[C@]5(CC(C)C(=O)O5)OC4CC1(C)C3CCC2C(C)(C)O (stereo partly specified) | > 100 | – | > 100 | – | > 100 | > 100 | > 100 | – | – | – | – | – | – | – | > 100 | > 100 | > 100 | – | – |
| CC(=O)[CH-]C(=O)c1ccccc1.CC(=O)[CH-]C(=O)c1ccccc1.[O-]c1ccc2c(c1)OCO2.[O-]c1ccc2c(c1)OCO2.[Ti+4] | > 100 | – | 64.8 | > 100 | 80.7 | > 100 | 93.8 | 43.9 | – | 32.7 | 29.5 | 21.1 | 34.4 µM | 20.4 | > 100 | 49.9 | – | 67.9 | 19.3 |
| C[N+](C)=c1ccc2nc3c(cc(NCCCNc4cc5oc6cc(=[N+](C)C)ccc-6nc5c5ccccc45)c4ccccc43)oc-2c1 | 7.39 | 45.6 | 46.9 | 35.4 | 43.4 | 5.85 | 13 | 2.33 | 7.22 | 19.1 | 12.7 | 4.66 | 1.9 µM | 2.92 | – | – | – | – | – |
